From ChEMBL document CHEMBL2434852, “Synthesis, cytotoxicity and DNA binding of oxoazabenzo[de]anthracenes derivatives in colon cancer Caco-2 cells” (Eur J Med Chem, 2013) come the findings set out here.

Experiment [1] deals with DNA. Description: Binding affinity to calf thymus DNA assessed as melting temperature at 10 uM by UV-Vis spectrophotometer analysis. It counts as nucleic-acid assay. The note with it: Bos taurus.
Experiment [2] has as its system Caco-2. Nature of the experiment: Cytotoxicity against human Caco2 cells up to 40 uM after 24 hrs by MTT assay. In kind it is functional, cell-based.
For experiment [3], the system named is DNA. Description: Displacement of ethidium bromide from calf thymus DNA assessed as fluorescence quenching by fluorometric assay. In kind it is nucleic-acid assay. To be noted: Bos taurus.
Experiment [4] addresses DNA topoisomerase 2-alpha (Homo sapiens) (UniProt P11388). Nature of the experiment: Inhibition of topoisomerase 2 (unknown origin) relaxation of supercoiled pBR322 at 50 to 100 uM by agarose gel electrophoresis.
Experiment [5] concerns the target T1, DNA topoisomerase 1 (Homo sapiens) (UniProt P11387).
T1 sequence (whole entry): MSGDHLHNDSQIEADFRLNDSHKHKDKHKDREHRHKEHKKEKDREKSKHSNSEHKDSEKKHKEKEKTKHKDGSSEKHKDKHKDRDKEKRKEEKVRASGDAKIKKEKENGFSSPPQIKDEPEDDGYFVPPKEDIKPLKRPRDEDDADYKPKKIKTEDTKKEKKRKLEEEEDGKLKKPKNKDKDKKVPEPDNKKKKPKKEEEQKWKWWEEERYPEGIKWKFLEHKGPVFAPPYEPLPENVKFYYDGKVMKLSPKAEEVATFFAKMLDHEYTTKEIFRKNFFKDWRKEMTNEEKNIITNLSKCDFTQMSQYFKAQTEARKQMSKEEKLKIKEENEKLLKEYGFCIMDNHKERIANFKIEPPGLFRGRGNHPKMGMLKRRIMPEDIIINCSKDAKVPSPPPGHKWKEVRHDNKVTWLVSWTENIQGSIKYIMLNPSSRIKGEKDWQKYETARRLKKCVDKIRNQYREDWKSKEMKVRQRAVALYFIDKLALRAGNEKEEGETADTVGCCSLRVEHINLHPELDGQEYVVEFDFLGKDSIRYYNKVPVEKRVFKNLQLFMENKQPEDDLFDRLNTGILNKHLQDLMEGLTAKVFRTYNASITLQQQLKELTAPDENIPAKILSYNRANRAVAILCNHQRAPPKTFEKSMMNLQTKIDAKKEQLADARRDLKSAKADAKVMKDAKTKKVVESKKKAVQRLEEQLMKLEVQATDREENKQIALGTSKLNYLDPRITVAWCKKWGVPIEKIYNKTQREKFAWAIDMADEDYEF
Description: Inhibition of topoisomerase 1 (unknown origin) relaxation of supercoiled pBR322 at 50 to 100 uM by agarose gel electrophoresis.

A further experiment relates to Escherichia coli. Description: Binding affinity to Escherichia coli supercoiled pBR322 assessed as change in morphology of plasmid to more relaxed conformation at 50 to 100 uM by agarose gel electrophoresis.
The subject of experiment [6] is Caco-2. Description: Cytotoxicity against human Caco2 cells after 72 hrs by MTT assay. It counts as functional, cell-based. To be noted: for IC50: Caco-2, 72 h.

Activity calls are given as the source filed them. The calls are words filed in the database; no cut-off is given here.

Chain of DNA topoisomerase 2-alpha (Homo sapiens) (P11388 whole entry): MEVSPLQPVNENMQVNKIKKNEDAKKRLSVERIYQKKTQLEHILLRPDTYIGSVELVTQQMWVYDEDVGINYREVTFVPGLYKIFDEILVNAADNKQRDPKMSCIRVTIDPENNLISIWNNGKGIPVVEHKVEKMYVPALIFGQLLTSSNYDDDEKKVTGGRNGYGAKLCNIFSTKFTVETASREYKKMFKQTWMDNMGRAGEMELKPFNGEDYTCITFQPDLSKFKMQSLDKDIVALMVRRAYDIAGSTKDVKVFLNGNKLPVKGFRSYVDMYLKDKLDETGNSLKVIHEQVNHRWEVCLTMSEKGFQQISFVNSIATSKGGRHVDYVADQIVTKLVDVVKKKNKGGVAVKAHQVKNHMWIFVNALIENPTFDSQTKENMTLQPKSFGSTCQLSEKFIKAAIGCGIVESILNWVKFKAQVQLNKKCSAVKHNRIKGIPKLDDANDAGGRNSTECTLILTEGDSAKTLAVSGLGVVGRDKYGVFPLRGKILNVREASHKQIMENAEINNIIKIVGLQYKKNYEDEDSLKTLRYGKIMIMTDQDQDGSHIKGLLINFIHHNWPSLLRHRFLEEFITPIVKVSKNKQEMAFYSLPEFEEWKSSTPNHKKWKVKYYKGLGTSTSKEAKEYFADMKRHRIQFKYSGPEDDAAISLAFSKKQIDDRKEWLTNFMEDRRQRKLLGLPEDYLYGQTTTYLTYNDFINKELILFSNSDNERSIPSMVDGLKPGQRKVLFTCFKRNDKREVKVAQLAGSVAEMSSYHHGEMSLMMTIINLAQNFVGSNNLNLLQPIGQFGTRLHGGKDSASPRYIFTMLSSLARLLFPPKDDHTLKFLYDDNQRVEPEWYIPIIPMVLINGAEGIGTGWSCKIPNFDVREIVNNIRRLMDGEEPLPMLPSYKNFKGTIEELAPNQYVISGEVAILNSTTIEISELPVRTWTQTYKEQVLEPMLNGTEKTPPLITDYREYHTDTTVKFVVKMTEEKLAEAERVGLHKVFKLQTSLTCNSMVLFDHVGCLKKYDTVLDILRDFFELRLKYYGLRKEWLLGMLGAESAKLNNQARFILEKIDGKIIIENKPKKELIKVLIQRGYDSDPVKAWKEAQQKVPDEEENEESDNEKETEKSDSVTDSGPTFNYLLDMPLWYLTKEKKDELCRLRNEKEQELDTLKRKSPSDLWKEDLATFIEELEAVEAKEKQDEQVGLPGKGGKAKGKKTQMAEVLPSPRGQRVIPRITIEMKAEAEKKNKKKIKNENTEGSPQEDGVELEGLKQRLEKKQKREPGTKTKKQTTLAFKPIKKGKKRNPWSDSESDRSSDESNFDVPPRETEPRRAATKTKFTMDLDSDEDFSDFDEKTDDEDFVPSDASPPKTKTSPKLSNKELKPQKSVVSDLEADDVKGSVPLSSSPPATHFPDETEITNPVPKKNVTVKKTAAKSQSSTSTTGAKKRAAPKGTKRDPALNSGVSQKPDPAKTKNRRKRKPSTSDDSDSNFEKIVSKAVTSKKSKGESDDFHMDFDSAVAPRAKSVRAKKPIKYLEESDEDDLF

For the molecule `O=C1c2cccc(O)c2C2=NC(CCCO)Oc3cccc1c32` (centres undefined), the Tm in the experiment on DNA [1] turned out to be 58.4 °C. In the experiment with Caco-2 [2], the outcome was inactive. Besides, the C50 entry in the experiment on DNA [3] is “inactive”.
For the molecule `O=C1c2cccc(O)c2C2=NC(CO)Oc3cccc1c32` (centres undefined), the Tm in the experiment with DNA [1] came to 64.3 °C. Further, the outcome in the experiment with Caco-2 [2] was inactive. Moreover, the C50 entry with DNA [3] was “inactive”.
As for `O=C1c2cccc(O)c2C2=NC(CCO)Oc3cccc1c32` (centres undefined), the Tm with DNA [1] was found to be 57.2 °C. Also, the outcome in the experiment with Caco-2 [2] was inactive. Also, the C50 result with DNA [3] is “inactive”.
As for `NCCC1CCCCN1C1N=C2c3c(O)cccc3C(=O)c3cccc(c32)O1` (centres undefined), the Tm with DNA [1] was found to be 79.9 °C. Moreover, the inhibition entry in experiment [4] and in experiment [5] was “inactive” throughout. The result with Escherichia coli was Active. This molecule also returned an IC50 in the experiment with Caco-2 [6] of 16 µM. Besides, the result in the experiment with Caco-2 [2] was inactive. In the experiment with DNA [3], the C50 was 6 µM.
Take `COc1cccc2c1C(=O)c1c(O)c3c(c(O)c1C2=O)C[C@@](O)(C(=O)CO)C[C@@H]3O[C@H]1C[C@H](N)[C@H](O)[C@H](C)O1` [DOXORUBICIN]: in the experiment with DNA [1], the Tm turned out to be 92 °C. The same molecule came in with an IC50 with Caco-2 [6] of 5 µM. In addition, the outcome in the experiment on Caco-2 [2] was inactive.
On to `O=C1c2cccc(O)c2C2=NC(CCCCCO)Oc3cccc1c32` (centres undefined), for which, in the experiment on DNA [1], the Tm amounted to 59.2 °C. Also, in the experiment with Caco-2 [2], the outcome was inactive. For the same molecule, the C50 entry in the experiment on DNA [3] is “inactive”.
In the case of `NCCC1CN(C2N=C3c4c(O)cccc4C(=O)c4cccc(c43)O2)CCO1` (centres undefined), the Tm with DNA [1] came to 66.2 °C. For the same molecule, the outcome in the experiment on Caco-2 [6] and with Caco-2 [2] was inactive. Moreover, the C50 entry with DNA [3] is “inactive”.
For the molecule `O=C1c2cccc(O)c2C2=NC(CCCCO)Oc3cccc1c32` (centres undefined), in the experiment with DNA [1], the Tm was 62.2 °C. Also, the result in the experiment on Caco-2 [2] was inactive. The C50 result with DNA [3] was “inactive”.
